Measurements reported in paper PMC10644342, “Improved Antibacterial Activity of 1,3,4-Oxadiazole-Based Compounds That Restrict Staphylococcus aureus Growth Independent of LtaS Function” (ACS Infectious Diseases, 2023).
≈ marks a conversion by molar mass, not a printed value.

What was measured:
[1] = test system: S. aureus wild type, clpX, ltaS, tarO mutants and ltaS overexpression strains; test: MIC against LtaS deletion and overexpression strains; format: cell-based, Staphylococcus aureus; conditions: Staphylococcus aureus, NEWMAN
Protocol: S. aureus, S. epidermidis, E. faecalis, and E. faecium strains were routinely cultivated on tryptic soy agar (TSA) and grown for 18 h at 37 °C. S. aureus single colonies were subsequently transferred into 2 mL of tryptic soy broth (TSB) and grown for a further 18 h at 37 °C while being shaken at 180 rpm. S. pyogenes, S. agalactiae, and S. dysgalactiae strains were routinely cultured on TSA supplemented with 5% sheep blood and grown for 18 h at 37 °C with 5% CO2. E. coli was grown in LB broth at 37 °C. For LtaS-deficient strains, TSB was supplemented with 0.5 M NaCl to provide an osmotically balanced environment and instead grown at 30 °C. For strains harboring the pRMC2 tetracycline inducible vector,[61] the growth medium was supplemented with 10 μg/mL chloramphenicol and […] anhydrotetracycline hydrochloride (Sigma). Phenylalanine-arginine β-naphthylamide (PAβN) (Sigma) was dissolved in sterile water.
B. subtilis, staphylococcal, and enterococcal strains were grown in Mueller Hinton broth (MHB), while streptococcal strains were grown in MHB supplemented with 5% laked horse blood. All strains were grown for 18 h at 37 °C. The overnight cultures were subsequently subcultured 1:200 and grown to the exponential phase (OD600nm = 0.5–0.6) in fresh broth. 1771 and its derivatives 9–14 were reconstituted in DMSO and further diluted by performing a 1:2 serial dilution ranging between 256 and 0.125 μg/mL in a 96-well microtiter plate. One hundred microliters of 0.5 McFarland standardized inoculum (approximately equal to 5 × 10^5 cfu) were then dispensed into each well in the 96-well microtiter plate. The plate was incubated for 18 h at 37 °C.
For overexpression studies, full-length ltaS was amplified by PCR using MRSA strian LAC genomic DNA, primer pair LtaS-FW: 5′-[…]-3′ and LtaS-RV: 5′-[…]-3′, and Phusion High-Fidelity DNA Polymerase (Thermo Fisher). The resulting PCR product was cloned into the tetracycline inducible plasmid pRMC2 using SacI and KpnI restriction sites and T4 ligase (NEB). The cloned vector was subsequently transformed into RN4220 followed by LAC through electroporation.

LtaS = test system: LtaS; set-up: method as in PMID 29300473; conditions: LtaS in artificial liposomes; cited from earlier work
S. aureus = test system: S. aureus; set-up: method as in PMID 23401520; conditions: cited from earlier work
HL-60 cell line = conditions: cited from earlier work

| Compound | MIC [1] [µg/mL] | MIC ([1]; Newman ΔtarO) [µg/mL] | MIC ([1]; Newman ΔtarO pRMC2 (empty vector)) [µg/mL] | MIC ([1]; Newman ΔtarO pltaS (ltaS overexpression)) [µg/mL] | inhibition of LtaS polymerization activity (LtaS) | frequency of mutant selection (S. aureus) | Cell health index (CHI) (HL-60 cell line) |
| --- | --- | --- | --- | --- | --- | --- | --- |
| Nc1c(/N=N/c2ccc(-c3ccc(/N=N/c4cc(S(=O)(=O)O)c5ccccc5c4N)cc3)cc2)cc(S(=O)(=O)O)c2ccccc12 [Congo red] | > 512 | 64 (≈ 98.1 µM) | 64 (≈ 98.1 µM) | 256 (≈ 392 µM) | blocked LtaS function |  |  |
| [H]/N=C(/N)N[C@H]1[C@H](O)[C@@H](O)[C@H](O[C@@H]2O[C@@H](C)[C@](O)(C=O)[C@H]2O[C@@H]2O[C@@H](CO)[C@H](O)[C@@H](O)[C@@H]2NC)[C@@H](N/C(N)=N\[H])[C@@H]1O [streptomycin] |  |  |  |  |  | < 10^–7 | 0.19 |
